Assay results as given in patent publication US11046699B2, “Pyrazolo-pyrimidin-amino-cycloalkyl compounds and their therapeutic uses” (RAPT THERAPEUTICS, INC., priority 2018, dated 2021).

target: GCN2 (Homo sapiens, UniProt Q9P2K8); assay: GCN2 enzymatic endpoint assay: phosphorylation of GFP-eIF2α measured by TR-FRET (Lanthascreen); type: biochemical; conditions: GCN2 biochemical IC50; 4 nM GCN2, 2 μM ATP, 80 nM GFP-eIF2α, 90 min RT; read-out: GCN2 activity
How it was run: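 Phosphorylated eIF2α read by Lanthascreen TR-FRET (acceptor 520 nm over donor 495 nm) after EDTA stop. The reaction ran 90 min at room temperature on 80 nM GFP-eIF2α with 2 μM ATP.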

Sequence of GCN2 (Q9P2K8 whole entry): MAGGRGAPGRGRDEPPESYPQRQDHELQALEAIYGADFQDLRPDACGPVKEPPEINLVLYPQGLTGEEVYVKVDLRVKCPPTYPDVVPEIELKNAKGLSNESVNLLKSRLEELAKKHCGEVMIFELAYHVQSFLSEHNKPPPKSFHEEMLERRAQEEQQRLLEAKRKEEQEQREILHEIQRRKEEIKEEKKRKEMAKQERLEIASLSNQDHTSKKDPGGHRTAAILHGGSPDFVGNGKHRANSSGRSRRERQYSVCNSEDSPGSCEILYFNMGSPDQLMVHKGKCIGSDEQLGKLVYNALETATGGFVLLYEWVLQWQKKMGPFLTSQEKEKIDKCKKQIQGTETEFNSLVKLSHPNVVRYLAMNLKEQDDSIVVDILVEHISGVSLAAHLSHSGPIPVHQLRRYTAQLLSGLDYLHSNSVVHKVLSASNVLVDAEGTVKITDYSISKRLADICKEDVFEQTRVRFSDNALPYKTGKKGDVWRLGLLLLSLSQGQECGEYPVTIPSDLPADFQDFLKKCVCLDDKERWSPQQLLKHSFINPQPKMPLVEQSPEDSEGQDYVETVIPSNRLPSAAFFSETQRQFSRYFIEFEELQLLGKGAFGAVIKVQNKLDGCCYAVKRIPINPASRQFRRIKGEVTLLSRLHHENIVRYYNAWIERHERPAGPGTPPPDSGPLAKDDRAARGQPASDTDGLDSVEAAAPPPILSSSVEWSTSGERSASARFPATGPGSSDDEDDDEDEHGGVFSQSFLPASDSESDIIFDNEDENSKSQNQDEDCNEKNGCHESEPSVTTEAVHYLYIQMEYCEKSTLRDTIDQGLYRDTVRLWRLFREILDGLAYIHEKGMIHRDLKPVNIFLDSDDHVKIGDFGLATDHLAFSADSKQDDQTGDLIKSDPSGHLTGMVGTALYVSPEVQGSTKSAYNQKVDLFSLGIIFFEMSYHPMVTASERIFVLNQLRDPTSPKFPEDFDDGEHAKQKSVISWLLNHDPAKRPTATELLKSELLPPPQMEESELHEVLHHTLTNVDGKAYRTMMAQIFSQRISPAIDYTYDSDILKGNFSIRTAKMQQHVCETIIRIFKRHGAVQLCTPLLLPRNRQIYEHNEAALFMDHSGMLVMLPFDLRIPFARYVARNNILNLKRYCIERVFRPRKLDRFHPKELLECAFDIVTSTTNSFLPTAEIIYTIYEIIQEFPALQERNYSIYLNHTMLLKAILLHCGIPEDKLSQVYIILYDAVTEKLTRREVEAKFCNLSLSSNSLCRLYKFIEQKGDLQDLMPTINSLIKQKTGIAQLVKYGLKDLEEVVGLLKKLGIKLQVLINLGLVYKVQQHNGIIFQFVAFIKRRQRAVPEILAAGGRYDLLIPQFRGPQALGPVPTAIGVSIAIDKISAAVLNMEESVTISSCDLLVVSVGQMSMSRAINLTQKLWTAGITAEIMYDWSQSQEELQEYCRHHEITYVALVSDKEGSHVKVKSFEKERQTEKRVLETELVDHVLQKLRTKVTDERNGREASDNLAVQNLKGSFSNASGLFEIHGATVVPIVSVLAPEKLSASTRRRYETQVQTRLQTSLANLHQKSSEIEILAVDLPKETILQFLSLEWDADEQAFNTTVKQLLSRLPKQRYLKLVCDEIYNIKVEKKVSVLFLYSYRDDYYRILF

IC50 | Compound
25 to 200 nM | CNC(=O)[C@]1(C)CC[C@@H](Nc2ncc3c(Br)nn(-c4ccc(-c5nnc(C(C)(C)N)o5)cc4)c3n2)C1 [Example 47, (1R,3R)-3-((1-(4-(5-(2-aminopropan-2-yl)-1,3,4-oxadiazol-2-yl)phenyl)-3-bromo-1H-pyrazolo[3,4-d]pyrimidin-6-yl)amino)-N,1-dimethylcyclopentane-1-carboxamide; 2,2,2-trifluoroacetic acid]

same assay, conditions: tested as described in Example 77; compound and/or hydrochloride, dihydrochloride or trifluoroacetic acid salt; read-out: IC 50 Activity

IC50 | Compound
200 to 500 nM | CS(=O)(=O)CCNC(=O)[C@@H]1CC[C@@H](Nc2ncc3c(Br)nn(-c4cc(C(F)F)c5ncccc5c4)c3n2)C1 [(1R,3R)-3-((3-bromo-1-(8-(difluoromethyl)quinolin-6-yl)-1H-pyrazolo[3,4-d]pyrimidin-6-yl)amino)-N-(2-(methylsulfonyl)ethyl)cyclo-pentane-1-carboxamide]
25 to 200 nM | CNC(=O)[C@]1(C)CCC(Nc2ncc3c(Br)nn(-c4ccc5c(=O)[nH]ccc5c4)c3n2)C1 (stereo partly drawn) [(1R)-3-[[3-bromo-1-(1-oxo-2H-isoquinolin-6-yl)pyrazolo[3,4-d]pyrimidin-6-yl]amino]-N,1-dimethyl-cyclopentanecarboxamide]
25 to 200 nM | CNC(=O)[C@@H]1CC[C@@H](Nc2ncc3c(Br)nn(-c4ccc5c(C)nn(C)c5c4)c3n2)C1 [(1R,3R)-3-[[3-bromo-1-(1,3-dimethylindazol-6-yl)pyrazolo[3,4-d]pyrimidin-6-yl]amino]-N-methyl-cyclopentanecarboxamide]
25 to 200 nM | CNC(=O)[C@]1(C)CC[C@@H](Nc2ncc3c(Br)nn(-c4cnc5c(CCN)cccc5c4)c3n2)C1 [(1R,3R)-3-[[1-[8-(2-aminoethyl)-3-quinolyl]-3-bromo-pyrazolo[3,4-d]pyrimidin-6-yl]amino]-N,1-dimethyl-cyclopentane-carboxamide]
25 to 200 nM | CNC(=O)[C@]1(C)CC[C@@H](Nc2ncc3c(Br)nn(-c4cc(CNCC(F)F)c5ncccc5c4)c3n2)C1 [(1R,3R)-3-[[3-bromo-1-[8-[(2,2-difluoroethylamino)methyl]-6-quinolyl]pyrazolo[3,4-d]pyrimidin-6-yl]amino]-N,1-dimethyl-cyclopentanecarboxamide]
25 to 200 nM | CNC(=O)[C@]1(C)CC[C@@H](Nc2ncc3c(Br)nn(-c4cc(Br)cc(CO)c4)c3n2)C1 [(1R,3R)-3-[[3-bromo-1-[3-bromo-5-(hydroxymethyl)phenyl]pyrazolo [3,4-d]pyrimidin-6-yl]amino]-N,1-dimethyl-cyclopentanecarboxamide]
25 to 200 nM | CNC(=O)[C@]1(C)CC[C@@H](Nc2ncc3c(Br)nn(-c4cc(CCN)c5c(c4)CCO5)c3n2)C1 [(1R,3R)-3-[[1-[7-(2-aminoethyl)-2,3-dihydrobenzofuran-5-yl]-3-bromo-pyrazolo [3,4-d]pyrimidin-6-yl]amino]-N,1-dimethyl-cyclopentanecarboxamide]
< 25 nM | O=C(O)C1CN(C(=O)[C@@H]2CC[C@@H](Nc3ncc4c(Br)nn(-c5ccc6ncccc6c5)c4n3)C2)CCN1 (mixture of isomers)
25 to 200 nM | CNC(=O)[C@]1(C)CC[C@@H](Nc2ncc3c(Br)nn(-c4ccc(C#N)c(CNS(C)(=O)=O)c4)c3n2)C1 [(1R,3R)-3-[[3-bromo-1-[4-cyano-3-(methanesulfonamidomethyl)phenyl]pyrazolo[3,4-d]pyrimidin-6-yl]amino]-N,1-dimethyl-cyclopentanecarboxamide]
< 25 nM | N#CC1CN(C(=O)[C@@H]2CC[C@@H](Nc3ncc4c(Br)cn(-c5cc(F)c6ncccc6c5)c4n3)C2)C1 [1-((1R,3R)-3-((5-bromo-7-(8-fluoroquinolin-6-yl)-7H-pyrrolo[2,3-d]pyrimidin-2-yl)amino)cyclopentane-1-carbonyl)azetidine-3-carbonitrile]
25 to 200 nM | CC(C)NC(=O)CN(C)C(=O)[C@@H]1CC[C@@H](Nc2ncc3c(Br)nn(-c4ccc5ncccc5c4)c3n2)C1 [(1R,3R)-3-((3-bromo-1-(quinolin-6-yl)-1H-pyrazolo[3,4-d]pyrimidin-6-yl)amino)-N-(2-(isopropylamino)-2-oxoethyl)-N-methylcyclo-pentane-1-carboxamide]
25 to 200 nM | CNC(=O)[C@]1(C)CC[C@@H](Nc2ncc3c(Br)nn(-c4ccc5nc(N6CCN(C)CC6)ncc5c4)c3n2)C1 [(1R,3R)-3-[[3-bromo-1-[2-(4-methylpiperazin-1-yl)quinazolin-6-yl]pyrazolo[3,4-d]pyrimidin-6-yl]amino]-N,1-dimethyl-cyclo-pentanecarboxamide; 2,2,2-trifluoroacetic acid]

Compound | IC50
Cc1nnc(-c2ccc(-n3nc(Br)c4cnc(N[C@@H]5CC[C@@]6(CCNC6=O)C5)nc43)cc2CCC#N)s1 | 25 to 200 nM
CNC(=O)[C@]1(C)CC[C@@H](Nc2ncc3c(Br)nn(-c4ccc5nc(N6CCCC6)ncc5c4)c3n2)C1 | 25 to 200 nM
